“Also recorded” adds a separate entry of the source. Marks after values point to notes of the source that are not given here.
Key:
rats = experiment: Blockade of diazepam suppression of responding (30 min pretreatment); format: in vivo, rat; details: ligand 3.0 mg/kg; diazepam 30 min pretreatment; FIG. 12A; N=5
Experimental: This profile is very similar to that of TPA023B despite the structural differences. […] For both compounds, we chose 3.0 mg/kg, i.p., in rats based on published literature or pilot studies in our laboratories.
FIGS. 12A and 12B illustrate the results of acute dependency testing using these compounds.

[1] = molecular target: α1 subunit-containing GABAA receptors (Homo sapiens, UniProt P14867+P18507); set-up: key to Subtype α1: act as partial positive modulators for particular subtype combinations; none: zero efficacy (i.e., antagonism) at other subtypes; details: cited from earlier work
Chain of α1 subunit-containing GABAA receptors (P14867 28-456): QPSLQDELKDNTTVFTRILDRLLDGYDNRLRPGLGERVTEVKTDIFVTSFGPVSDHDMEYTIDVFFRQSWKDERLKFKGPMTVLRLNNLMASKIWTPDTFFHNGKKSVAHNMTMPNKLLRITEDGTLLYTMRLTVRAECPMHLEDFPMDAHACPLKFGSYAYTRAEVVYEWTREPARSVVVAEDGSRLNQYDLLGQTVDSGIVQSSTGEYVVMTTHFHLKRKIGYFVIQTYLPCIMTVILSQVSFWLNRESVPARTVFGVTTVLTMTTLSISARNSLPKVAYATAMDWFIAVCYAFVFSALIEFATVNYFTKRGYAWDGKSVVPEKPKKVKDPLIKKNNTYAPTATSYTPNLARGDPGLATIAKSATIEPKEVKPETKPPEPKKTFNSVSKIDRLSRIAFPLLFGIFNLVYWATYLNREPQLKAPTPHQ
Chain of α1 subunit-containing GABAA receptors (P18507 40-475): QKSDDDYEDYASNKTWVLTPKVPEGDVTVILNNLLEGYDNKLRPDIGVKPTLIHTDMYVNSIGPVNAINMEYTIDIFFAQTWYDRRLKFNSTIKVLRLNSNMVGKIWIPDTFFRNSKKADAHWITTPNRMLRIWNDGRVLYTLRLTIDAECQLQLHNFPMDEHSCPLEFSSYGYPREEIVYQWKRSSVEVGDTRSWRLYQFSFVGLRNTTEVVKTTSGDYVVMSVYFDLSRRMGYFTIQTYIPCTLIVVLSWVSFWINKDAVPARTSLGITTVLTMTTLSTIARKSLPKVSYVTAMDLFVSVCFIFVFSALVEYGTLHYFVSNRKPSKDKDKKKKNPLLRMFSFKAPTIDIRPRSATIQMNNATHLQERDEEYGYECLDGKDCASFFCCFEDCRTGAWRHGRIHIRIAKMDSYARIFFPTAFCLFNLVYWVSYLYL
Chain of α1 subunit-containing GABAA receptors (P28472 26-473 partner): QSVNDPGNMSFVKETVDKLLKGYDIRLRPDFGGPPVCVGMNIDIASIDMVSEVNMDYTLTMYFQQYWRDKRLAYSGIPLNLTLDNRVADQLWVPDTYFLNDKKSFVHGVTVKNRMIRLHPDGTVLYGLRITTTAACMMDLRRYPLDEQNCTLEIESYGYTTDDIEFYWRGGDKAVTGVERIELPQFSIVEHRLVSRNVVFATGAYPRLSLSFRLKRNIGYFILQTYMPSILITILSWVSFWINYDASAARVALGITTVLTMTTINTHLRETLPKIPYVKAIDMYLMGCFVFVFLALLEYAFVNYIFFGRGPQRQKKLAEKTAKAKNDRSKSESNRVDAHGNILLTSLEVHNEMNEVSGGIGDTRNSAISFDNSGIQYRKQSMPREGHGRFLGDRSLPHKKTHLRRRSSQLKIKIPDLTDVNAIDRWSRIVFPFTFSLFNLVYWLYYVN

[2] = molecular target: α2 subunit-containing GABAA receptors (Homo sapiens, UniProt P18507+P47869); set-up: key: act as partial positive modulators for particular subtype combinations; none: zero efficacy (i.e., antagonism) at other subtypes; details: cited from earlier work
Chain of α2 subunit-containing GABAA receptors (P47869 29-451): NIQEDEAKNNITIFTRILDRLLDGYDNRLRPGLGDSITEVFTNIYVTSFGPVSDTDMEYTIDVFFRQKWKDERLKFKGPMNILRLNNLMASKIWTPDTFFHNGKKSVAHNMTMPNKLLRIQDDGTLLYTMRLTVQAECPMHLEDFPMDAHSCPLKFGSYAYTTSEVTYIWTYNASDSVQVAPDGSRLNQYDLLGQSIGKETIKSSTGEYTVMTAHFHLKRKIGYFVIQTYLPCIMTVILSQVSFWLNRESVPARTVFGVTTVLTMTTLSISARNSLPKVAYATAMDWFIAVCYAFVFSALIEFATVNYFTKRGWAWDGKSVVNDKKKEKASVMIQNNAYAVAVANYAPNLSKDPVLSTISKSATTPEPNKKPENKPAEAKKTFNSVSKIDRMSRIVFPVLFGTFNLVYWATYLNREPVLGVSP
Chain of α2 subunit-containing GABAA receptors (P18507 40-475): as the sequence (P18507 40-475) above
Chain of α2 subunit-containing GABAA receptors (P28472 26-473 partner): as the sequence (P28472 26-473 partner) above

[3] = molecular target: α3 subunit-containing GABAA receptors (Homo sapiens, UniProt P18507+P34903); set-up: key: act as partial positive modulators for particular subtype combinations; none: zero efficacy (i.e., antagonism) at other subtypes; details: cited from earlier work
Chain of α3 subunit-containing GABAA receptors (P34903 29-492): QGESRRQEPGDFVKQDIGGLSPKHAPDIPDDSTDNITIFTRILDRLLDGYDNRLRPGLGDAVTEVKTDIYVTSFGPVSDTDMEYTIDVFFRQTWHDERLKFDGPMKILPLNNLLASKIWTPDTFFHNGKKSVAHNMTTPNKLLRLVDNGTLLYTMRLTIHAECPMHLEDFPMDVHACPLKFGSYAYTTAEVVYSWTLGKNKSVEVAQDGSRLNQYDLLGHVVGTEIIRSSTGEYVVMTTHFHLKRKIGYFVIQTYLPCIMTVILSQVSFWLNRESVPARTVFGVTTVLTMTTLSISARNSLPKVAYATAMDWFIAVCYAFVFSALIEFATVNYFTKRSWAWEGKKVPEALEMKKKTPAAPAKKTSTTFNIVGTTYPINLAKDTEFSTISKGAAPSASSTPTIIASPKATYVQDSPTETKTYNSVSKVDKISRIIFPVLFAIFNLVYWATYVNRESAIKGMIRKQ
Chain of α3 subunit-containing GABAA receptors (P18507 40-475): as the sequence (P18507 40-475) above
Chain of α3 subunit-containing GABAA receptors (P28472 26-473 partner): as the sequence (P28472 26-473 partner) above

[4] = molecular target: α5 subunit-containing GABAA receptors (Homo sapiens, UniProt P18507+P31644); set-up: key to Subtype α5: act as partial positive modulators for particular subtype combinations; none: zero efficacy (i.e., antagonism) at other subtypes; details: cited from earlier work
Chain of α5 subunit-containing GABAA receptors (P31644 32-462): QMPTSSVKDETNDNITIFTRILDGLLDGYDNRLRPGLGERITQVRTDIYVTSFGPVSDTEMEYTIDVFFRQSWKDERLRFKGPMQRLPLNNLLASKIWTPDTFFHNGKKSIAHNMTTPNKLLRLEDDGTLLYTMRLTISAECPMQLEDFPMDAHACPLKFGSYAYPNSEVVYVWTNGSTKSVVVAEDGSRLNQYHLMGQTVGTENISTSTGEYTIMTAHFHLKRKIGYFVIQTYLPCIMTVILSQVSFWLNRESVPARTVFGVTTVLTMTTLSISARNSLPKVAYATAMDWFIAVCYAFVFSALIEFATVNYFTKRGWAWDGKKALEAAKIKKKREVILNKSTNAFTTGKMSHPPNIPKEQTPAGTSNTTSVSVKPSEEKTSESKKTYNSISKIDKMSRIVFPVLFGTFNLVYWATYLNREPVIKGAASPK
Chain of α5 subunit-containing GABAA receptors (P18507 40-475): as the sequence (P18507 40-475) above
Chain of α5 subunit-containing GABAA receptors (P28472 26-473 partner): as the sequence (P28472 26-473 partner) above

[5] = set-up: key to Pharmacokinetics: “poor” - low bioavailability and/or short half-life; “good” - potent with long half-life; details: in vivo; cited from earlier work
rhesus monkeys [6] = experiment: Midazolam self-administration (PR) after TPA023B pretreatment; format: in vivo, rhesus monkey; details: midazolam alone, PR procedure
Experimental: To test this, we have trained monkeys to self-administer the short-acting conventional benzodiazepine midazolam (0.056 mg/kg/injection, i.v.) in the PR procedure, as described above. During test sessions, we initially kept the training dose of midazolam constant, and administered i.v. pretreatments of TPA023B (0.003, 0.01, 0.03, 0.1, 0.3 mg/kg, of vehicle) immediately prior to the beginning of the session. A key consideration for any pharmacotherapy, as well as interpretation of blockade of reinforcing effects generally, is the extent to which the blockade is specific to the drug target and not a generalized suppression of behavior, e.g., due to sedative-motor effects inhibiting the ability of the monkey to press the lever. Another possible confounding factor that would potentially result in blockade of drug taking is general sickness or perceptual alterations. In particular, appetite suppression would represent an undesirable side effect in a benzodiazepine addiction pharmacotherapy.
To further evaluate the extent to which attenuation of responding was due to pharmacological antagonism and to evaluate an exemplary range of effective doses, we evaluated single doses of TPA023B administered prior to sessions in which differing doses of midazolam were tested.

rhesus monkeys [7] = experiment: Conflict model of anxiolysis (mult FR, FR+PUN); format: in vivo, rhesus monkey; details: i.v.; for Non-Suppressed, Mean responses/s (SEM) / Suppressed, Mean responses/s (SEM): N = 4 monkeys
Description: The conflict procedure methodology includes a two-component multiple fixed-ratio, fixed-ratio plus punishment schedule (mult FR, FR+PUN). An important feature of this model is that it is highly predictive of clinically active doses in human subjects (Rowlett et al. 2006, Psychopharmacology 184: 201-11). One component of this schedule was associated with a distinctive visual stimulus (e.g., red light) and the other component was associated with a different stimulus (e.g., green light). In each component, completion of 10 responses (FR 10) produced a food pellet followed by a brief (10 sec) timeout period. The component ended following delivery of 5 food pellets or 5 min, whichever occurred first. A 10-min timeout period occurred before each of four cycles with two components (1 red, 1 green) per cycle. When performance in both components of the multiple schedule was stable, responding in one component was suppressed by superimposing a FR schedule of response-produced electric shock. Under the superimposed schedule, every nth response (n=15-25, adjusted for each monkey depending on individual performance) produced shock. Once responding was stable (at least three sessions in which suppressed responding was less than 50% of non-suppressed responding, with no upward or downward trend in response rates in either component), investigational compounds were administered i.v. during the extended timeout periods using a cumulative dosing technique. This technique allowed determination of a four-point dose-response function in a single session.
Table 2 summarizes data for TPA023B in the conflict procedure (n=4 monkeys, 2 females and 2 males), with alprazolam as a positive control. Average responses when vehicle was administered was 2.2 in the non-suppressed component, decreased by ˜98% by shock presentation in the suppressed component (mean=0.05 responses). For non-suppressed responding, TPA023B had no effects on mean rates of responding or percent of control over a 100-fold dose range (0.01 to 1.0 mg/kg, i.v.). […] This effect was similar to that observed with 0.03 mg/kg, i.v., of alprazolam. A striking characteristic of TPA023B in this procedure is the lack of attenuation of rates of responding at higher doses.

rhesus monkeys [8] = experiment: Observation/sedation, focal animal behavioral scoring; format: in vivo, rhesus monkey; details: at least one dose significantly different from vehicle; out of 22 behaviors; i.v.; N = 4 monkeys
Experimental: For the data shown here, the behavior of each monkey (n=4 total) was scored using a focal animal approach as described previously (Duke et al. 2018, J Pharmacol Exp Ther 366: 145-57). Briefly, a trained observer blind to the drug treatments observed a specific monkey for 5 min and recorded each instance that a particular behavior occurred during 15-s intervals. Scores for each behavior were calculated as the number of 15-s bins in which the behavior occurred (e.g., a maximum score would be 20). For sedation measures, structured exposure to stimuli were included in the observation sessions (Duke et al., 2018). […] Specifically, the observer presented three stimuli: 1) walked at a normal pace towards the cage, 2) spoke the animal's name, and 3) moved the lock used to secure the door of the cage. […] If the monkey attended more slowly (i.e., >3 s following stimuli), the observer scored “moderate sedation”.
The assessment of sedation was initiated during the 5-min sampling period if the animal presented, at any time during that period, with its eyes closed for longer than 3 s. The result of this assessment was recorded for each remaining 15-sec interval of the 60-sec epoch unless eyes opened. Afterwards, eyes closing again initiated the assessment. If eyes remained closed, then the assessment was repeated at the beginning of the next 60-sec epoch 15-sec interval. Therefore, the maximum score for sedation during a 5-min period was 20 (four possible scores for 4×15-sec intervals per min, 5 min total; i.e., 4 possible scores×5 min=20). The order in which animals were observed and the observer performing the scoring each day was randomized. Four observers participated in the scoring throughout the duration of the study; each observer underwent a minimum of 20 hours of training and met an inter-observer reliability criterion of ≥90% agreement with all other observers.
The five-min sampling periods were repeated at multiple times following i.v. injection of TPA023B or vehicle (minutes post injection): 5, 10, 20, 40, 80, 160, 320. Scores were cumulated across the time periods, resulting in a maximum possible cumulative score of 140. TPA023B was compared with alprazolam, and the results have been published by Duke et al. (2018).

Sprague-Dawley rats [9] = experiment: Pulmonary ventilation, whole body plethysmography; format: in vivo, rat; details: 3.0 mg/kg, i.p.; N=8 rats
Experimental: We first assessed the effects of TPA023B, in comparison with alprazolam, using whole body plethysmography (WBP; DSI systems). For these studies, adult male Sprague-Dawley rats (n=8) were habituated to the chambers for 30 min. The chamber was then filled with 21% oxygen, sealed, and pressure fluctuation measured for 1 min. Next, the chamber was opened and the rats were injected with alprazolam or TPA023B, i.p., and placed into the sealed chamber for a 15 min pretreatment time. The chamber was again filled with 21% oxygen, and for 1 min, fluctuating pressure amounts were recorded to obtain tidal volume (lung capacity), breaths/minute, and minute volume (lung capacity per unit time).

Sprague-Dawley rats [10] = experiment: Precipitated withdrawal/acute dependence: responding 60 min after diazepam bolus; format: in vivo, rat
Experimental: Acute dependence can occur after single exposures to the benzodiazepine chlordiazepoxide, but not to an α2/3GABAA selective ligand (Fischer et al. 2013, Psychopharmacology 227: 347-54). Here, the extent to which TPA023B can precipitate withdrawal in rats following a single, large bolus dose of diazepam was studied. […] Once rates of responding were stable, doses of diazepam, the non-selective benzodiazepine antagonist flumazenil, and TPA023B were administered prior to the session.

[11] = rhesus monkey; cited from earlier work
Sprague-Dawley rats [12] = experiment: Food-maintained responding (FR 10), ligand alone; details: for effect on rates of responding: diazepam 3.0 mg/kg

Cn1ncnc1COc1nn2c(-c3cc(F)ccc3F)nnc2cc1C(C)(C)C [L-838,417]
ability of diazepam to suppress rates of responding (rats): blocked
Subtype α1 [1]: none
efficacy at α1GABAA subtype [1]: antagonist; also recorded: no efficacy
Subtype α2 [2]: partial
Subtype α3 [3]: partial
Subtype α5 [4]: partial
PK [5]: Poor
Pharmacokinetics [5]: poor

Cn1ncnc1COc1nn2c(-c3ccccc3)nnc2cc1C1CCC1 [MRK-067]
PK [5]: poor

MRK-409
Subtype α1 [1]: partial
Subtype α2 [2]: partial
Subtype α3 [3]: partial
Subtype α5 [4]: partial
Pharmacokinetics [5]: good

Cc1ncc2n1-c1ccc(Cl)cc1C(c1ccccc1F)=NC2 [midazolam, reference compound]
dose showing maximal self-administration (rhesus monkeys [6]): 0.018 mg/kg/injection

Cc1nnc2n1-c1ccc(Cl)cc1C(c1ccccc1)=NC2 [Alprazolam, alprazolam]
Non-Suppressed, Mean responses/s (SEM) (rhesus monkeys [7]; 0.03 mg/kg): 1.8 (0.31) responses/s
Suppressed, Mean responses/s (SEM) (rhesus monkeys [7]; 0.03 mg/kg): 1.9 (0.10)* responses/s
effect on non-suppressed responding (rhesus monkeys [7]; 0.3 mg/kg): markedly attenuated
Non-Suppressed, Mean responses/s (SEM) (rhesus monkeys [7]; 0.3 mg/kg): 0.18 (0.09)* responses/s
Suppressed, Mean responses/s (SEM) (rhesus monkeys [7]; 0.3 mg/kg): 0.10 (0.10) responses/s
Significant behavioral effects: Decrease (rhesus monkeys [8]): Exploration; also recorded: Passive Visual, Tactile/Oral
Significant behavioral effects: Increase (rhesus monkeys [8]): Sedation, Deep Sedation,; also recorded: Observable Ataxia; also recorded: Rest/Sleep Posture, Moderate
breathing frequency (Sprague-Dawley rats [9]): significantly reduced
minute volume (Sprague-Dawley rats [9]): significantly reduced

Cn1ncnc1COc1nn2c(-c3ccccc3F)nnc2cc1C1CCC1 [MRK-696]
Subtype α1 [1]: partial
Subtype α2 [2]: partial
Subtype α3 [3]: partial
Subtype α5 [4]: partial
Pharmacokinetics [5]: poor

CCOC(=O)c1ncn2c1CN(C)C(=O)c1cc(F)ccc1-2 [flumazenil, reference compound]
rates of responding 60 min after 3.0 mg/kg diazepam (precipitated withdrawal) (Sprague-Dawley rats [10]; all doses tested, vs ligand alone, FIGS. 11A and 11B): robustly suppressed responding
rates of responding after 60-min pretreatment of diazepam (acute dependence) (Sprague-Dawley rats [10]; ligand 3.0 mg/kg, FIG. 12B, N=5): significant decrease
ability of diazepam to suppress rates of responding (rats): blocked

N#Cc1cc(F)ccc1-c1cc(-c2cnc3nc(C(F)(F)F)ccn23)ccc1F [MRK-898]
Subtype α1 [1]: none
efficacy at α1GABAA subtype [1]: antagonist
Subtype α2 [2]: partial
Subtype α3 [3]: partial
Subtype α5 [4]: none
efficacy at α5GABAA subtype [4]: antagonist
Pharmacokinetics [5]: good
bioavailability [11]: 49%
half-life [11]: 13 h

CN1C(=O)CN=C(c2ccccc2)c2cc(Cl)ccc21 [diazepam]
mean rates of responding (percent of baseline control), ligand alone (Sprague-Dawley rats [12]; N=8 rats, FIGS. 10A to 10C): significantly decreased
effect on rates of responding (Sprague-Dawley rats [12]; 30 min pre-treatment): most robust effects
effect on rates of responding (Sprague-Dawley rats [12]; 60 min pre-treatment): no effects
